pIC50: −log10 of the molar value. Counter-ions that a name gives are not always drawn. Like-named read-outs stand apart in the source and are kept apart here.
Legend:
[1] = target: Kif5b-RET fusion protein in HEK-293 cells (Homo sapiens, UniProt P07949); assay: cell-based
Protocol: The cellular potency of a compound inhibiting RET kinase was determined in HEK-293 cells expressing a Kif5b-RET fusion protein. Briefly, HEK-293 cells expressing a Kif5b-RET fusion protein were plated at 50K cells/well in 96 well poly-D-Lysine coated plates the day prior to the assay. The cells were incubated for 1 hour with test compound in DMEM (Dulbecco's Modified Eagle Medium) at a final DMSO concentration of 0.5%. […] After 1 hour the media was removed, the cells were fixed with 3.8% formaldehyde for 20 min, washed with PBS, and permeabilized for 10 min with 100% methanol. […] All antibodies were diluted in LI-COR Block containing 0.05% Tween. The plates were washed with PBS-0.05% Tween20, 100 μL PBS was added to each well, and the plates were read on a LI-COR Aerius fluorescent plate reader. The phospho-RET signal was normalized to the GAPDH signal. […] The IC50 value is the point where the curve crosses 50 POC.

[2] = target: N-terminal GST tagged recombinant human RET cytoplasmic domain (aa 658-end), wild type RET kinase (Homo sapiens (Human), UniProt P07949); assay: RET Enzyme Assay (HTRF KinEASE-TK), wild type RET; assay type: biochemical; conditions: wild type RET, 1 mM ATP
Chain of N-terminal GST tagged recombinant human RET cytoplasmic domain (aa 658-end), wild type RET kinase (P07949 658-1114): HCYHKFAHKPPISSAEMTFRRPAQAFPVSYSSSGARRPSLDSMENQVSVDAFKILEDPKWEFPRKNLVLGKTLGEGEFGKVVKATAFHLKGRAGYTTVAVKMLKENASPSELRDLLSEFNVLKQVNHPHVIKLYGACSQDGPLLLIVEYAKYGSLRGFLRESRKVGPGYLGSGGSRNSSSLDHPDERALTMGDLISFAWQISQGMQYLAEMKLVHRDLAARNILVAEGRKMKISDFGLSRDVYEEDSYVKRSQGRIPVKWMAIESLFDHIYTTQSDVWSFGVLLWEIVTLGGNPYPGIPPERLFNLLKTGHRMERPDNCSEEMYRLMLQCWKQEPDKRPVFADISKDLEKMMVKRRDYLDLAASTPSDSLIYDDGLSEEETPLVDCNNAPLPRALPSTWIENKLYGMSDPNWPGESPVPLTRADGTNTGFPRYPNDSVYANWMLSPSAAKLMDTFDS

[3] = HEK-293 cells expressing Kif5b-RET, read-out: KIF5B-RET pTYR1062 Cell IC50
[4] = HEK-293 cells expressing Kif5b-RET, phospho-RET(Tyr1062), read-out: KIF5B-RET pTYR1062 Cell IC50

Chain of Kif5b-RET fusion protein in HEK-293 cells (P07949 29-1114 limits assumed): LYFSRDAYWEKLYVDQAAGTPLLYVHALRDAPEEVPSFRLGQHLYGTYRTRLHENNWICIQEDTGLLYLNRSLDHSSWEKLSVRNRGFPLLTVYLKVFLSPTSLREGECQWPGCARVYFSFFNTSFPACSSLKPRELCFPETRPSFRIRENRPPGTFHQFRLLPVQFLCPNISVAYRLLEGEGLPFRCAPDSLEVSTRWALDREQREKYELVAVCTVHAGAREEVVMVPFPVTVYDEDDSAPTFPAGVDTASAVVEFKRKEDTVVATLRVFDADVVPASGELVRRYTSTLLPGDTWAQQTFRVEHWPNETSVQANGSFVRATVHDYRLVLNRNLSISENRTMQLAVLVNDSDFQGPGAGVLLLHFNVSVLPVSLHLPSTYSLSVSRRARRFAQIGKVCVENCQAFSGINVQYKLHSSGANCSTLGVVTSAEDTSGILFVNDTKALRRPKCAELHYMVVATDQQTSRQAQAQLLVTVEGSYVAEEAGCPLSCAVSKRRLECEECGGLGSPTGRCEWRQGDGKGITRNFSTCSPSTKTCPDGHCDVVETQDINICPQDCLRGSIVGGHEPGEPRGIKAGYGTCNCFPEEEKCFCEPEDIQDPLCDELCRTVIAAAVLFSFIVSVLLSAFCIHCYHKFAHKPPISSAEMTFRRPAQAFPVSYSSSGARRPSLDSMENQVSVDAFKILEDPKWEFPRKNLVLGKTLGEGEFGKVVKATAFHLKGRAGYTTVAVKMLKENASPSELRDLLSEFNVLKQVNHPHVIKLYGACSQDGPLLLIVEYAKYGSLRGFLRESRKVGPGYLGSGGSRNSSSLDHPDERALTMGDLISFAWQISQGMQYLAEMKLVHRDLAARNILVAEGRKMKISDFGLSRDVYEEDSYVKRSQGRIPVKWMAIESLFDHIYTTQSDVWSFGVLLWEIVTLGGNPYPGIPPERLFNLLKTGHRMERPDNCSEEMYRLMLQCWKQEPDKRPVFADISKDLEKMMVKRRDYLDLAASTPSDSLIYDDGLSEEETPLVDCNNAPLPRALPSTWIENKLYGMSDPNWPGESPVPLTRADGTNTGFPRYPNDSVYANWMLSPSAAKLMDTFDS

Structure (SMILES): CC(C)OCCN1CCN(c2ccc(-c3cc(-c4cnn(C(F)F)c4)cn4ncc(C#N)c34)cn2)CC1 [Example 585, 6-(1-(difluoromethyl)-1H-pyrazol-4-yl)-4-(6-(4-(2-isopropoxyethyl)piperazin-1-yl)pyridin-3-yl)pyrazolo[1,5-a]pyridine-3-carbonitrile]
- pIC50 [1]: 7.88
- pIC50 [2]: 7.87

Structure (SMILES): COc1ccc(CN2CCN(c3ccc(-c4cc(-c5cnn(C)c5)cn5ncc(C)c45)cn3)CC2)cn1 [Example 744, 4-(6-(4-((6-methoxypyridin-3-yl)methyl)piperazin-1-yl)pyridin-3-yl)-3-methyl-6-(1-methyl-1H-pyrazol-4-yl)pyrazolo[1,5-a]pyridine]
- pIC50 [1]: 7.18
- pIC50 [2]: 7.34

Structure (SMILES): COc1ccc(CN2CCN(c3ccc(-c4cc(-c5cnn(CC(C)CO)c5)cn5ncc(C#N)c45)cn3)CC2)cn1 (stereo in doubt) [Example 708, (S)-6-(1-(3-hydroxy-2-methylpropyl)-1H-pyrazol-4-yl)-4-(6-(4-((6-methoxypyridin-3-yl)methyl)piperazin-1-yl)pyridin-3-yl)pyrazolo[1,5-a]pyridine-3-carbonitrile]
- pIC50 [1, 3]: 8.15
- pIC50 [2]: 7.71

Structure (SMILES): Cc1cnn2cc(-c3cnn(C)c3)cc(-c3ccc(N4CCN(Cc5ccccc5)CC4)nc3)c12 [Example 653, 4-(6-(4-benzylpiperazin-1-yl)pyridin-3-yl)-3-methyl-6-(1-methyl-1H-pyrazol-4-yl)pyrazolo[1,5-a]pyridine]
- pIC50 [1, 3]: 7.16
- pIC50 [2]: 7.06

Structure (SMILES): COc1cc(C)c(CN2CCN(c3ccc(-c4cc(-c5cnn(C)c5)cn5ncc(C#N)c45)cn3)CC2)cn1 [Example 672, 4-(6-(4-((6-methoxy-4-methylpyridin-3-yl)methyl)piperazin-1-yl)pyridin-3-yl)-6-(1-methyl-1H-pyrazol-4-yl)pyrazolo[1,5-a]pyridine-3-carbonitrile]
- pIC50 [1, 3]: 7.76
- pIC50 [2]: 7.71

Structure (SMILES): COc1ccc(CN2CCN(c3ccc(-c4cc(-c5cnn(CC(C)OC)c5)cn5ncc(C#N)c45)cn3)CC2)cn1 (stereo not drawn) [Example 709, 6-(1-(2-methoxypropyl)-1H-pyrazol-4-yl)-4-(6-(4-((6-methoxypyridin-3-yl)methyl)piperazin-1-yl)pyridin-3-yl)pyrazolo[1,5-a]pyridine-3-carbonitrile]
- pIC50 [1, 3]: 8.03
- pIC50 [2]: 7.58

Structure (SMILES): CC(O)CN(C)C(=O)C1CCN(c2ccc(-c3cc(-c4cnn(C)c4)cn4ncc(C#N)c34)cn2)CC1 (stereo not drawn) [Example 245, 1-(5-(3-cyano-6-(1-methyl-1H-pyrazol-4-yl)pyrazolo[1,5-a]pyridin-4-yl)pyridin-2-yl)-N-(2-hydroxypropyl)-N-methylpiperidine-4-carboxamide]
- pIC50 [1, 4]: 6.72
- pIC50 [2]: 7.52

Structure (SMILES): C[C@H](O)C(=O)NC1CCN(c2ccc(-c3cc(-c4cnn(C)c4)cn4ncc(C#N)c34)cn2)CC1 [Example 180, (S)-N-(1-(5-(3-cyano-6-(1-methyl-1H-pyrazol-4-yl)pyrazolo[1,5-a]pyridin-4-yl)pyridin-2-yl)piperidin-4-yl)-2-hydroxypropanamide]
- pIC50 [1, 4]: 6.87
- pIC50 [2]: 7.87

Structure (SMILES): COc1ccc(CN2CCN(c3ccc(-c4cc(-c5cnn(C(C)C)c5)cn5ncc(C#N)c45)cn3)CC2)cn1 [Example 697, 6-(1-isopropyl-1H-pyrazol-4-yl)-4-(6-(4-((6-methoxypyridin-3-yl)methyl)piperazin-1-yl)pyridin-3-yl)pyrazolo[1,5-a]pyridine-3-carbonitrile]
- pIC50 [1]: 7.86
- pIC50 [2]: 7.55

Structure (SMILES): CC[C@@H](CO)NC(=O)N1CCN(c2ccc(-c3cc(-c4cnn(C)c4)cn4ncc(C#N)c34)cn2)CC1 [Example 122, (S)-4-(5-(3-cyano-6-(1-methyl-1H-pyrazol-4-yl)pyrazolo[1,5-a]pyridin-4-yl)pyridin-2-yl)-N-(1-hydroxybutan-2-yl)piperazine-1-carboxamide]
- pIC50 [1, 4]: 6.57
- pIC50 [2]: 7.95

Structure (SMILES): Cc1cnn2cc(-c3cnn(C)c3)cc(-c3ccc(N4CCN(Cc5ccccn5)CC4)nc3)c12 [Example 654, 3-methyl-6-(1-methyl-1H-pyrazol-4-yl)-4-(6-(4-(pyridine-2-ylmethyl)piperazin-1-yl)pyridin-3-yl)pyrazolo[1,5-a]pyridine]
- pIC50 [1, 3]: 6.79
- pIC50 [2]: 7.15

Structure (SMILES): CC(C)C(O)CN1CCN(c2ccc(-c3cc(-c4cnn(C)c4)cn4ncc(Cl)c34)cn2)CC1 (stereo not drawn) [Example 648, 1-(4-(5-(3-chloro-6-(1-methyl-1H-pyrazol-4-yl)pyrazolo[1,5-a]pyridin-4-yl)pyridine-2-yl)piperazin-1-yl)-3-methylbutan-2-ol]
- pIC50 [1]: 6.74
- pIC50 [2]: 7.47

Structure (SMILES): CNC(=O)N1CCN(c2ccc(-c3cc(-c4cnn(C)c4)cn4ncc(C#N)c34)cn2)CC1 [Example 387, 4-(5-(3-cyano-6-(1-methyl-1H-pyrazol-4-yl)pyrazolo[1,5-a]pyridin-4-yl)pyridin-2-yl)-N-methylpiperazine-1-carboxamide]
- pIC50 [1]: 7.27
- pIC50 [2]: 7.60

Structure (SMILES): COCCCN1CCN(c2ccc(-c3cc(-c4cnn(C)c4)cn4ncc(C#N)c34)cn2)CC1 [Example 405, 4-(6-(4-(3-methoxypropyl)piperazin-1-yl)pyridin-3-yl)-6-(1-methyl-1H-pyrazol-4-yl)pyrazolo[1,5-a]pyridine-3-carbonitrile]
- pIC50 [1, 3]: 7.49
- pIC50 [2]: 7.51

Structure (SMILES): COc1ccc(CN2CCN(c3ccc(-c4cc(-c5cnn(CCC(=O)N(C)C)c5)cn5ncc(C#N)c45)cn3)CC2)cn1 [Example 706, 3-(4-(3-cyano-4-(6-(4-((6-methoxypyridin-3-yl)methyl)piperazin-1-yl)pyridin-3-yl)pyrazolo[1,5-a]pyridin-6-yl)-1H-pyrazol-1-yl)-N,N-dimethylpropanamide]
- pIC50 [1, 3]: 8.19
- pIC50 [2]: 7.74

Structure (SMILES): Cn1cc(-c2cc(-c3ccc(N4CCN(C(=O)OC(C)(C)C)CC4)nc3)c3c(Cl)cnn3c2)cn1 [Example 325, tert-butyl 4-(5-(3-chloro-6-(1-methyl-1H-pyrazol-4-yl)pyrazolo[1,5-a]pyridin-4-yl)pyridin-2-yl)piperazine-1-carboxylate]
- pIC50 [1, 4]: 6.13
- pIC50 [2]: 6.43

Structure (SMILES): COc1cccc(CN2CCN(c3ccc(-c4cc(-c5cn[nH]c5)cn5ncc(C#N)c45)cn3)CC2)n1 [Example 699, 4-(6-(4-((6-methoxypyridin-2-yl)methyl)piperazin-1-yl)pyridin-3-yl)-6-(1H-pyrazol-4-yl)pyrazolo[1,5-a]pyridine-3-carbonitrile]
- pIC50 [1, 3]: 7.61
- pIC50 [2]: 7.71

Structure (SMILES): COc1ccc(CN2CCN(c3ccc(-c4cc(-c5cnn(C[C@H](C)O)c5)cn5ncc(C#N)c45)cn3)CC2)cn1 [Example 701, (S)-6-(1-(2-hydroxypropyl)-1H-pyrazol-4-yl)-4-(6-(4-((6-methoxypyridin-3-yl)methyl)piperazin-1-yl)pyridin-3-yl)pyrazolo[5-a]pyridine-3-carbonitrile]
- pIC50 [1, 3]: 8.10
- pIC50 [2]: 7.78

Structure (SMILES): CC(C)C(=O)N[C@H]1CCCN(c2ccc(-c3cc(-c4cnn(C)c4)cn4ncc(C#N)c34)cn2)C1 [Example 225, (S)—N-(1-(5-(3-cyano-6-(1-methyl-1H-pyrazol-4-yl)pyrazolo[1,5-a]pyridin-4-yl)pyridin-2-yl)piperidin-3-yl)isobutyramide]
- pIC50 [1, 4]: 6.34
- pIC50 [2]: 6.98

Structure (SMILES): Cc1nn(C(C)(C)C)cc1-c1cc(-c2ccc(N3CCN(Cc4ccccc4)CC3)nc2)c2c(C#N)cnn2c1 [Example 616, 4-(6-(4-benzylpiperazin-1-yl)pyridin-3-yl)-6-(1-(tert-butyl)-3-methyl-1H-pyrazol-4-yl)pyrazolo[1,5-a]pyridine-3-carb onitrile]
- pIC50 [1]: 7.07
- pIC50 [2]: 7.22

Structure (SMILES): N#Cc1cnn2cc(-c3cnn(C(F)F)c3)cc(-c3ccc(N4CCNCC4)nc3)c12 [Example 266, 6-(1-(difluoromethyl)-1H-pyrazol-4-yl)-4-(6-(piperazin-1-yl)pyridin-3-yl)pyrazolo[1,5-a]pyridine-3-carbonitrile dihydrochloride]
- pIC50 ([1]; read-out: KIF5B-RET pTYR1062 Cell IC50): 6.79
- pIC50 [2]: 7.32

Structure (SMILES): COc1ccc(CN2CCN(c3ccc(-c4cc(-c5cn[nH]c5)cn5ncc(C#N)c45)cn3)CC2)cn1 [Example 698, 4-(6-(4-((6-methoxypyridin-3-yl)methyl)piperazin-1-yl)pyridin-3-yl)-6-(1H-pyrazol-4-yl)pyrazolo[1,5-a]pyridine-3-carbonitrile]
- pIC50 [1, 3]: 7.91
- pIC50 [2]: 8.17

Structure (SMILES): COc1ccc(CN2CCN(c3ccc(-c4cc(-c5cnn(C)c5)cn5ncc(C#N)c45)cn3)CC2)c(C)n1 [Example 678, 4-(6-(4-((6-methoxy-2-methylpyridin-3-yl)methyl)piperazin-l-yl)pyridin-3-yl)-6-(1-methyl-1H-pyrazol-4-yl)pyrazolo[1,5-a]pyridine-3-carbonitrile]
- pIC50 [1]: 7.79
- pIC50 [2]: 7.82

Structure (SMILES): COc1ccc(CN2CCN(c3ncc(-c4cc(-c5cnn(C)c5)cn5ncc(C#N)c45)cc3F)CC2)cn1 [Example 736, 4-(5-fluoro-6-(4-((6-methoxypyridin-3-yl)methyl)piperazin-1-yl)pyridin-3-yl)-6-(1-methyl-1H-pyrazol-4-yl)pyrazolo[1,5-a]pyridine-3-carbonitrile]
- pIC50 [1]: 7.17
- pIC50 [2]: 7.45
